Measured values taken from patent EP0465716A1, “Optically active thiazetoquino-line-3-carboxylic acid compound, method for preparation thereof, and a pharmaceutical composition comprising the same” (priority 1990, dated 1992).
≈ marks a conversion by molar mass, not a printed value. Counter-ions that a name gives are not always drawn. Like-named read-outs stand apart in the source and are kept apart here.

Tests used:
[1] = test system: Pseudomonas aeruginosa IFO 3445; assay: MIC, twofold agar dilution method (standard laboratory strain); type: cell-based; conditions: IFO3445; Pseudomonas aeruginosa IFO 3445, Gram -; 10^6 cfu/ml; 18 hrs at 37 °C
Procedure: (§1) Overnight cultures in Mueller-Hinton broth were suspended by buffered saline gelatin. One loopful of the bacterial suspension (10⁶ or 10⁸ colony-forming units/ml) was incubated onto the plates containing test compounds. The plates were incubated for 18 hrs at 37 °C. The MIC was defined by the lowest concentration of the drug that inhibited visible growth of bacteria.

[2] = test system: Staphylococuss aureus FDA 209PJC-1; assay: as above; type: cell-based; conditions: Staphylococuss aureus FDA 209PJC-1, Gram +; 10^6 cfu/ml; 18 hrs at 37 °C
Procedure: as §1

Enterobacter cloacae 963 = assay: as above; type: cell-based; conditions: Enterobacter cloacae 963, Gram -; 10^6 cfu/ml; 18 hrs at 37 °C
Procedure: as §1

[3] = test system: Escherichia coli NIHJ JC-2; assay: as above; type: cell-based; conditions: NIHJJC2; Escherichia coli NIHJ JC-2, Gram -; 10^6 cfu/ml; 18 hrs at 37 °C
Procedure: as §1

[4] = test system: Serratia marcescens IAM 1184; assay: as above; type: cell-based; conditions: IAM1184; Serratia marcescens IAM 1184, Gram -; 10^6 cfu/ml; 18 hrs at 37 °C
Procedure: as §1

[5] = test system: Acinetobacter calcoaceticus HNR 916; assay: MIC, twofold agar dilution method (clinically isolated strain); type: cell-based; conditions: HNR916; Acinetobacter calcoaceticus HNR 916, Gram -; 10^6 cfu/ml; 18 hrs at 37 °C
Procedure: as §1

[6] = test system: Enterobacter cloacae HNR 1946; assay: as above; type: cell-based; conditions: HNR1946; Enterobacter cloacae HNR 1946, Gram -; 10^6 cfu/ml; 18 hrs at 37 °C
Procedure: as §1

[7] = test system: Pseudomonas aeruginosa HNR 1472; assay: as above; type: cell-based; conditions: HNR1472; Pseudomonas aeruginosa HNR 1472, Gram -; 10^6 cfu/ml; 18 hrs at 37 °C
Procedure: as §1

[8] = test system: Serratia marcescens HNR 1544; assay: as above; type: cell-based; conditions: HNR1544; Serratia marcescens HNR 1544, Gram -; 10^6 cfu/ml; 18 hrs at 37 °C
Procedure: as §1

[9] = test system: Staphylococcuss aureus HPC 527; assay: as above; type: cell-based; conditions: Staphylococcuss aureus HPC 527, Gram +; 10^6 cfu/ml; 18 hrs at 37 °C
Procedure: as §1

[10] = test system: Enterococcus faecalis HPC 975; assay: as above; type: cell-based; conditions: HPC975; Enterococcus faecalis HPC 975, Gram +; 10^6 cfu/ml; 18 hrs at 37 °C
Procedure: as §1

[11] = test system: Klebsiella pneumoniae HNR 828; assay: as above; type: cell-based; conditions: HNR828; Klebsiella pneumoniae HNR 828, Gram -; 10^6 cfu/ml; 18 hrs at 37 °C
Procedure: as §1

[12] = test system: Pseudomonas aeruginosa HNR 1537; assay: as above; type: cell-based; conditions: HNR1537; Pseudomonas aeruginosa HNR 1537, Gram -; 10^6 cfu/ml; 18 hrs at 37 °C
Procedure: as §1

[13] = test system: Serratia marcescens HNR 1792; assay: as above; type: cell-based; conditions: HNR1792; Serratia marcescens HNR 1792, Gram -; 10^6 cfu/ml; 18 hrs at 37 °C
Procedure: as §1

[14] = test system: Staphylococcuss aureus HPC 292; assay: as above; type: cell-based; conditions: Staphylococcuss aureus HPC 292, Gram +; 10^6 cfu/ml; 18 hrs at 37 °C
Procedure: as §1

[15] = test system: Enterococcus faecalis HPC 984; assay: as above; type: cell-based; conditions: HPC984; Enterococcus faecalis HPC 984, Gram +; 10^6 cfu/ml; 18 hrs at 37 °C
Procedure: as §1

[16] = test system: Enterobacter cloacae HNR 1941; assay: as above; type: cell-based; conditions: HNR1941; Enterobacter cloacae HNR 1941, Gram -; 10^6 cfu/ml; 18 hrs at 37 °C
Procedure: as §1

[17] = test system: Klebsiella pneumoniae HNR 858; assay: as above; type: cell-based; conditions: HNR858; Klebsiella pneumoniae HNR 858, Gram -; 10^6 cfu/ml; 18 hrs at 37 °C
Procedure: as §1

[18] = test system: Acinetobacter calcoaceticus HNR 939; assay: as above; type: cell-based; conditions: HNR939; Acinetobacter calcoaceticus HNR 939, Gram -; 10^6 cfu/ml; 18 hrs at 37 °C
Procedure: as §1

[19] = test system: Staphylococcuss aureus HPC 308; assay: as above; type: cell-based; conditions: Staphylococcuss aureus HPC 308, Gram +; 10^6 cfu/ml; 18 hrs at 37 °C
Procedure: as §1

[20] = test system: Enterobacter cloacae HNR 1939; assay: as above; type: cell-based; conditions: HNR1939; Enterobacter cloacae HNR 1939, Gram -; 10^6 cfu/ml; 18 hrs at 37 °C
Procedure: as §1

[21] = test system: Serratia marcescens HNR 1767; assay: as above; type: cell-based; conditions: HNR1767; Serratia marcescens HNR 1767, Gram -; 10^6 cfu/ml; 18 hrs at 37 °C
Procedure: as §1

[22] = test system: Enterococcus faecalis HPC 948; assay: as above; type: cell-based; conditions: HPC948; Enterococcus faecalis HPC 948, Gram +; 10^6 cfu/ml; 18 hrs at 37 °C
Procedure: as §1

[23] = test system: Klebsiella pneumoniae HNR 869; assay: as above; type: cell-based; conditions: HNR869; Klebsiella pneumoniae HNR 869, Gram -; 10^6 cfu/ml; 18 hrs at 37 °C
Procedure: as §1

[24] = test system: Acinetobacter calcoaceticus HNR 904; assay: as above; type: cell-based; conditions: HNR904; Acinetobacter calcoaceticus HNR 904, Gram -; 10^6 cfu/ml; 18 hrs at 37 °C
Procedure: as §1

[25] = test system: Pseudomonas aeruginosa HNR 1489; assay: as above; type: cell-based; conditions: HNR1489; Pseudomonas aeruginosa HNR 1489, Gram -; 10^6 cfu/ml; 18 hrs at 37 °C
Procedure: as §1

Male mice of ddY strain = assay: Convulsion inducing activity in combination with fenbufen; conditions: thirty minutes after fenbufen 100 mg/kg orally
Procedure: Male mice of ddY strain, 5 weeks old, were used. Fenbufen suspended in 0.5 % carboxymethylcellulose was administered orally at a dose of 100 mg/kg. After thirty minutes, test compounds suspended in 0.5 % carboxymethylcellulose were injected intraperitoneally (i.p.) at a dose of 100 mg/kg or 300 mg/kg.

[26] = test system: Klebsiella pneumoniae PCI-602; assay: MIC, twofold agar dilution method (standard laboratory strain); type: cell-based
Procedure: as §1, with “Minimum inhibitory concentrations (MIC) of test compounds were determined by the twofold agar dilution method (Chemotherapy, 29(1), 76(1981)). Overnight” for “Overnight”

[27] = PCI602, Klebsiella pneumoniae PCI-602, Gram -, 10^6 cfu/ml, 18 hrs at 37 °C, read-out: MIC

| MIC [1] | MIC [2] | MIC (Enterobacter cloacae 963) | MIC [3] | MIC [4] | MIC [5] | MIC [6] | MIC [7] | MIC [8] | MIC [9] | MIC [10] | MIC [11] | MIC [12] | MIC [13] | MIC [14] | MIC [15] | MIC [16] | MIC [17] | MIC [18] | MIC [19] | Compound | also measured |
| --- | --- | --- | --- | --- | --- | --- | --- | --- | --- | --- | --- | --- | --- | --- | --- | --- | --- | --- | --- | --- | --- |
| 0.05 µg/mL (≈ 0.13 µM) | 0.025 µg/mL (≈ 0.0651 µM) | 0.012 µg/mL (≈ 0.0313 µM) | 0.012 µg/mL (≈ 0.0313 µM) | 0.025 µg/mL (≈ 0.0651 µM) | 0.05 µg/mL (≈ 0.13 µM) | 0.1 µg/mL (≈ 0.261 µM) | 1.56 µg/mL (≈ 4.06 µM) | 0.025 µg/mL (≈ 0.0651 µM) | 0.025 µg/mL (≈ 0.0651 µM) | 1.56 µg/mL (≈ 4.06 µM) | 0.78 µg/mL (≈ 2.03 µM) | 1.56 µg/mL (≈ 4.06 µM) | 0.39 µg/mL (≈ 1.02 µM) | 1.56 µg/mL (≈ 4.06 µM) | 0.1 µg/mL (≈ 0.261 µM) | 0.78 µg/mL (≈ 2.03 µM) | 0.1 µg/mL (≈ 0.261 µM) | 0.78 µg/mL (≈ 2.03 µM) | 0.39 µg/mL (≈ 1.02 µM) | CC1Sc2c(C(=O)O)c(=O)c3cc(F)c(N4CC[C@H](N)C4)c(Cl)c3n21 (single isomer, unassigned) [Example 15] | MIC [20]: 0.1 µg/mL (≈ 0.261 µM); MIC [21]: 1.56 µg/mL (≈ 4.06 µM); MIC [22]: 0.39 µg/mL (≈ 1.02 µM); MIC [23]: 0.2 µg/mL (≈ 0.521 µM); MIC [24]: 6.25 µg/mL (≈ 16.3 µM); MIC [25]: 0.1 µg/mL (≈ 0.261 µM); Number of convulsion induced / Number of animals (Male mice of ddY strain; 100 mg/kg (i.p.)): 0 / 6; Number of convulsion induced / Number of animals (Male mice of ddY strain; 300 mg/kg (i.p.)): 0 / 6; MIC [26, 27]: 0.006 µg/mL (≈ 0.0156 µM) |
| 0.2 µg/mL (≈ 0.572 µM) | 0.1 µg/mL (≈ 0.286 µM) | 0.05 µg/mL (≈ 0.143 µM) | 0.025 µg/mL (≈ 0.0716 µM) | 0.05 µg/mL (≈ 0.143 µM) | 0.78 µg/mL (≈ 2.23 µM) | 0.39 µg/mL (≈ 1.12 µM) | 6.25 µg/mL (≈ 17.9 µM) | 0.05 µg/mL (≈ 0.143 µM) | 0.39 µg/mL (≈ 1.12 µM) | 50 µg/mL (≈ 143 µM) | 1.56 µg/mL (≈ 4.46 µM) | 6.25 µg/mL (≈ 17.9 µM) | 6.25 µg/mL (≈ 17.9 µM) | 50 µg/mL (≈ 143 µM) | 0.78 µg/mL (≈ 2.23 µM) | 12.5 µg/mL (≈ 35.8 µM) | 0.2 µg/mL (≈ 0.572 µM) | 6.25 µg/mL (≈ 17.9 µM) | 25 µg/mL (≈ 71.6 µM) | CC1Sc2c(C(=O)O)c(=O)c3cc(F)c(N4CCNCC4)cc3n21 (centres unmarked) [Ref. Drug B, 6-fluoro-1-methyl-4-oxo-7-(1-piperazinyl)-1H,4H-[1,3]thiazeto[3,2-a]quinoline-3-carboxylic acid] | MIC [20]: 0.2 µg/mL (≈ 0.572 µM); MIC [21]: 50 µg/mL (≈ 143 µM); MIC [22]: 6.25 µg/mL (≈ 17.9 µM); MIC [23]: 0.78 µg/mL (≈ 2.23 µM); MIC [24]: > 100 µg/mL; MIC [25]: 0.1 µg/mL (≈ 0.286 µM); MIC [26, 27]: 0.012 µg/mL (≈ 0.0343 µM) |
| 0.1 µg/mL (≈ 0.272 µM) | 0.05 µg/mL (≈ 0.136 µM) | 0.05 µg/mL (≈ 0.136 µM) | 0.025 µg/mL (≈ 0.068 µM) | 0.05 µg/mL (≈ 0.136 µM) | 0.1 µg/mL (≈ 0.272 µM) | 0.2 µg/mL (≈ 0.544 µM) | 6.25 µg/mL (≈ 17 µM) | 0.05 µg/mL (≈ 0.136 µM) | 0.05 µg/mL (≈ 0.136 µM) | 3.13 µg/mL (≈ 8.52 µM) | 1.56 µg/mL (≈ 4.25 µM) | 6.25 µg/mL (≈ 17 µM) | 1.56 µg/mL (≈ 4.25 µM) | 3.13 µg/mL (≈ 8.52 µM) | 0.1 µg/mL (≈ 0.272 µM) | 3.13 µg/mL (≈ 8.52 µM) | 0.2 µg/mL (≈ 0.544 µM) | 0.78 µg/mL (≈ 2.12 µM) | 0.78 µg/mL (≈ 2.12 µM) | CC1Sc2c(C(=O)O)c(=O)c3cc(F)c(N4CC[C@@H](N)C4)c(F)c3n21 (single isomer, unassigned) [Example 26] | MIC [20]: 0.1 µg/mL (≈ 0.272 µM); MIC [21]: 6.25 µg/mL (≈ 17 µM); MIC [22]: 0.39 µg/mL (≈ 1.06 µM); MIC [23]: 0.78 µg/mL (≈ 2.12 µM); MIC [24]: 25 µg/mL (≈ 68 µM); MIC [25]: 0.1 µg/mL (≈ 0.272 µM); MIC [26, 27]: 0.012 µg/mL (≈ 0.0327 µM) |
|  |  |  |  |  |  |  |  |  |  |  |  |  |  |  |  |  |  |  |  | O=C(O)c1cn(C2CC2)c2cc(N3CCNCC3)c(F)cc2c1=O [Ref. Drug A, ciprofloxacin hydrochloride] | Number of convulsion induced / Number of animals (Male mice of ddY strain; 100 mg/kg (i.p.)): 4 / 6; Number of convulsion induced / Number of animals (Male mice of ddY strain; 300 mg/kg (i.p.)): 6 / 6; MIC ([26]; Klebsiella pneumoniae, PCI602, 18 h): 0.012 µg/mL |
